Results as given in article PMC9031908 (RSC Advances, 2021).
Like-named read-outs stand apart in the source and are kept apart here.

Assays:
5-HT2A receptor [1] = molecular target: 5-HT2A receptor (Rattus norvegicus, UniProt P14842); assay: biochemical; type: binding
5-HT1A receptor [2] = molecular target: T1, 5-HT1A receptor (Rattus norvegicus, UniProt P19327); assay: biochemical; type: binding
T1 sequence (P19327 1-422): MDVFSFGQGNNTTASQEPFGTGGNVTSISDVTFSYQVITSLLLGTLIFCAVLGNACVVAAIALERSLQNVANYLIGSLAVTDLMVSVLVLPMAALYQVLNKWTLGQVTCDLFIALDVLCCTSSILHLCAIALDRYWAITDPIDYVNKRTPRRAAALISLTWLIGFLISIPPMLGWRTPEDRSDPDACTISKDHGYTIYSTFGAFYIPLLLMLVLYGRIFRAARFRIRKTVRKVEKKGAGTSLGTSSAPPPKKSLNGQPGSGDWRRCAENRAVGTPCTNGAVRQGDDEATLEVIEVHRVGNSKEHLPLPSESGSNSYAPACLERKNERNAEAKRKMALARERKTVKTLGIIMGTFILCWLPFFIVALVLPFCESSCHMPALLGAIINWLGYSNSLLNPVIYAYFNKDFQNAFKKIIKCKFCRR

D2 receptor [3] = molecular target: D2 receptor (Rattus norvegicus, UniProt P61169); assay: biochemical; type: binding
Sequence of D2 receptor (Rattus norvegicus, UniProt P61169) (P61169 whole entry): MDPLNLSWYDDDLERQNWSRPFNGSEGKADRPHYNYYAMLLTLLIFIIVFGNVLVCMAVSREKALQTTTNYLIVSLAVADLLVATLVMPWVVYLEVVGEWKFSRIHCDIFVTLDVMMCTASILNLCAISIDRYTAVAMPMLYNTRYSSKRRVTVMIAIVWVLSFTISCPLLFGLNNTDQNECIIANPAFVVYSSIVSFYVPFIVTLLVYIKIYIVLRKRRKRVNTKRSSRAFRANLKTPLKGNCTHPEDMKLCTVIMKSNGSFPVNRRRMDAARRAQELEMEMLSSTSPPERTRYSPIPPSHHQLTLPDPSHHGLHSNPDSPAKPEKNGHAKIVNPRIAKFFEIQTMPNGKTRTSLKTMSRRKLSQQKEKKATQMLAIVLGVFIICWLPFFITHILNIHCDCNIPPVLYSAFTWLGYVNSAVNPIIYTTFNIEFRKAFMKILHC

H3 receptor = H3 receptor (Rattus norvegicus, UniProt Q9QYN8); type: binding
Sequence of H3 receptor (Q9QYN8 whole entry): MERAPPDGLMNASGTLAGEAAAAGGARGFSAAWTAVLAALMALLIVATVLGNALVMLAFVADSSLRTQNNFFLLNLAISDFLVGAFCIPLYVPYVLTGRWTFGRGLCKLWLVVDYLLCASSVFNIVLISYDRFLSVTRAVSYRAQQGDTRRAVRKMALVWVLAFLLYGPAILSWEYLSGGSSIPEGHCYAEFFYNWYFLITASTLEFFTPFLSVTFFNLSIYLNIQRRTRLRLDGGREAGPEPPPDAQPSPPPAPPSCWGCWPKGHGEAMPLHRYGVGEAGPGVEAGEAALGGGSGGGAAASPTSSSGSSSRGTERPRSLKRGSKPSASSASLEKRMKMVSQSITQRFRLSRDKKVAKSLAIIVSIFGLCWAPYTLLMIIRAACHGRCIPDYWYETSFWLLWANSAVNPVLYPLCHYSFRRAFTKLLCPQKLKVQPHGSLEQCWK

5-HT6 receptor [4] = molecular target: T2, 5-HT6 receptor (Homo sapiens, UniProt P50406); assay: biochemical; type: binding
T2 sequence (P50406 whole entry): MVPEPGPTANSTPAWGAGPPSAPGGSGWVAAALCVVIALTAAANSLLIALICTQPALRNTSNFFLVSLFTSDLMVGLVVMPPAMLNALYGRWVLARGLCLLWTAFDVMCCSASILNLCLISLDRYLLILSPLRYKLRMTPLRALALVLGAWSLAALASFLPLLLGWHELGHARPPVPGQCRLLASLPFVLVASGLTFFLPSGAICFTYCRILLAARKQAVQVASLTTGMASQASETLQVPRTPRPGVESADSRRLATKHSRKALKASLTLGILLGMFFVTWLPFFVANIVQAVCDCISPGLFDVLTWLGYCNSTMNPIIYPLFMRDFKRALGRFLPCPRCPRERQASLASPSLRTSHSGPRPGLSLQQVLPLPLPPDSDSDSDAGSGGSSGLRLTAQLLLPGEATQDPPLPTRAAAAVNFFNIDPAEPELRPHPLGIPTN

5-HT2C receptor = molecular target: T3, 5-HT2C receptor (Rattus norvegicus, UniProt P08909); assay: biochemical
T3 sequence (P08909 33-460): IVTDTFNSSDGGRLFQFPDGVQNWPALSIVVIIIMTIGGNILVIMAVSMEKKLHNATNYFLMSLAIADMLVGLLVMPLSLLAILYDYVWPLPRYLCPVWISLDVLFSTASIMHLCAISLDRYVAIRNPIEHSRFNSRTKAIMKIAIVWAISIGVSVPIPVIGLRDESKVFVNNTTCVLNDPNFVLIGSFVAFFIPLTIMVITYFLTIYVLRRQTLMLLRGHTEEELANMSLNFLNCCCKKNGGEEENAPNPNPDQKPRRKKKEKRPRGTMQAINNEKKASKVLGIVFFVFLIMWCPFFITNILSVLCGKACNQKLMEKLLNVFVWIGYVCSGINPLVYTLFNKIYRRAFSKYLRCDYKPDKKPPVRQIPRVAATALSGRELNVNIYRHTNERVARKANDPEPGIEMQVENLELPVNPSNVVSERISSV

mice [5] = assay: Weight gain after 28 days of administration; type: in vivo; conditions: oral
5-HT1A receptor [6] = molecular target: T4, 5-HT1A receptor (Homo sapiens, UniProt P08908); assay: cell-based
T4 sequence (P08908 1-422): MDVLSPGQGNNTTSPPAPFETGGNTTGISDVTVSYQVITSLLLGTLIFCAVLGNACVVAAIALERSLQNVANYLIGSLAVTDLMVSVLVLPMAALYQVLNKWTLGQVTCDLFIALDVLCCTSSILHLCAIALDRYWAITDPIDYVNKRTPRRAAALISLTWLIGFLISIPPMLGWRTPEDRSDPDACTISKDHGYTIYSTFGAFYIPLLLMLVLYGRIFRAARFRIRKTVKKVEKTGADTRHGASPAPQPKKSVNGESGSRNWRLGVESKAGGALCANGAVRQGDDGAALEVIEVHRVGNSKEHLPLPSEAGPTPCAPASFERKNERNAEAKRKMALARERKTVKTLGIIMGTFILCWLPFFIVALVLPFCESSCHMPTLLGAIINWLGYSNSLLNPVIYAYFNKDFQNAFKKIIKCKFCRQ

5-HT2A receptor [7] = molecular target: 5-HT2A receptor (Homo sapiens, UniProt P28223); assay: 5-HT2A functional activity; type: cell-based
Sequence of 5-HT2A receptor (Homo sapiens, UniProt P28223) (P28223 whole entry): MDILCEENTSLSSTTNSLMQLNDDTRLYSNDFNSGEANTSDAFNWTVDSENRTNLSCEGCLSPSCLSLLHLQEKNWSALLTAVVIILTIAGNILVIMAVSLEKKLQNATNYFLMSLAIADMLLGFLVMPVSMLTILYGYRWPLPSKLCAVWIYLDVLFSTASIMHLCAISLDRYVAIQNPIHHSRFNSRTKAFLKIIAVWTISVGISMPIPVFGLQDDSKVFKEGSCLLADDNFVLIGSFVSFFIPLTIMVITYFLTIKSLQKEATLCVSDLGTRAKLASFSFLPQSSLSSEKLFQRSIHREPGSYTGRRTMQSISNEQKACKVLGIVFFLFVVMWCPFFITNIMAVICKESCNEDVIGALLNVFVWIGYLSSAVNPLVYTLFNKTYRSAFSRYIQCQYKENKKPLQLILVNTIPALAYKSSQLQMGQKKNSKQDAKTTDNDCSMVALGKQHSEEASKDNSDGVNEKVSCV

rats [8] = conditions: oral
α1 receptor = conditions: read-out: Receptor affinity Ki ± SEM, α1; three experiments, mean ± SEM
D2 receptor [9] = molecular target: D2 receptor (Homo sapiens, UniProt P14416); assay: cell-based
Sequence of D2 receptor (Homo sapiens, UniProt P14416) (P14416 whole entry): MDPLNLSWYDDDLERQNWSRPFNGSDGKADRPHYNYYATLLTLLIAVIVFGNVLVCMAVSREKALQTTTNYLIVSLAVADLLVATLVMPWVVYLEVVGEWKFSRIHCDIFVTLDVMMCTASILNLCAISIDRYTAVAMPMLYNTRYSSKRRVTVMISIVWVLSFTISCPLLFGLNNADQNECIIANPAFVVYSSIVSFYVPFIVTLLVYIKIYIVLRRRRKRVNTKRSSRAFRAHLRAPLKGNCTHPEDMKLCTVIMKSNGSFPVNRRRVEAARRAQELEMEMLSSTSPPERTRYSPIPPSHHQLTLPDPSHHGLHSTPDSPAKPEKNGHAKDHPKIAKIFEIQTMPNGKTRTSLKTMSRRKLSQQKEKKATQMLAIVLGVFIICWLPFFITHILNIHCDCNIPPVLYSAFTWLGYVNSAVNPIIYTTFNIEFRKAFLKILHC

mice [10] = assay: Catalepsy test; type: in vivo; conditions: po
H1 receptor = H1 receptor (Cavia porcellus, UniProt P31389); assay: biochemical
Sequence of H1 receptor (P31389 whole entry): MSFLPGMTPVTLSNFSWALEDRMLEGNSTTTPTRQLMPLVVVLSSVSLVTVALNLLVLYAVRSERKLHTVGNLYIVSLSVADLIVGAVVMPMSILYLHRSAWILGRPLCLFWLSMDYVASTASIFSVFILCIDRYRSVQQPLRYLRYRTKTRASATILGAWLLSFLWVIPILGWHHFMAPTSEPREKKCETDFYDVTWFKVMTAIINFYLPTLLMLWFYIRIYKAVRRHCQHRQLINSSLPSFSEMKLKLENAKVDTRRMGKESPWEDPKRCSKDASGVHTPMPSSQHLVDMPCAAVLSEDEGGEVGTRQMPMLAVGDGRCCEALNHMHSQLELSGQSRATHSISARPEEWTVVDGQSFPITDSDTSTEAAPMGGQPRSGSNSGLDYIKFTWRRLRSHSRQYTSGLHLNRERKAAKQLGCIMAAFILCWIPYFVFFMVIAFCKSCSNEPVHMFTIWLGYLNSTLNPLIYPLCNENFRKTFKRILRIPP

5-HT6 receptor [11] = molecular target: T2, 5-HT6 receptor; assay: cell-based
mice [12] = assay: Apomorphine-induced climbing; type: in vivo; conditions: po
hH3R = hH3R (Homo sapiens, UniProt Q9Y5N1); assay: H3 functional activity
Sequence of hH3R (Q9Y5N1 whole entry): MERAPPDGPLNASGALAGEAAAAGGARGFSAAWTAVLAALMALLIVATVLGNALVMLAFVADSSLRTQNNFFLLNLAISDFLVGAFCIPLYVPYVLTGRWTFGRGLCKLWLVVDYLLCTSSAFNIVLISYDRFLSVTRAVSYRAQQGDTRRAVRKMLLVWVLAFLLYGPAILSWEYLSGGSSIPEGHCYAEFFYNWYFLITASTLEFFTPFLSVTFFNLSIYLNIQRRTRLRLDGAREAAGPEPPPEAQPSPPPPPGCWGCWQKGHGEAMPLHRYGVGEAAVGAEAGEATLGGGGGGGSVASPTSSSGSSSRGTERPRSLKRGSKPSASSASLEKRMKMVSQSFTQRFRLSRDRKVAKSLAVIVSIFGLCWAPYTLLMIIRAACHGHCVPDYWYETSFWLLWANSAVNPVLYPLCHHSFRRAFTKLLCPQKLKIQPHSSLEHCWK

mice [13] = assay: MK-801-induced hyperactivity; conditions: po
mice [14] = assay: Acute toxicity; conditions: oral, 24 h
rats [15] = assay: Conditioned avoidance response; type: in vivo; conditions: po
mice [16] = assay: Serum prolactin after 28 days of administration; type: in vivo; conditions: oral

Sequence of 5-HT2A receptor (Rattus norvegicus, UniProt P14842) (P14842 whole entry): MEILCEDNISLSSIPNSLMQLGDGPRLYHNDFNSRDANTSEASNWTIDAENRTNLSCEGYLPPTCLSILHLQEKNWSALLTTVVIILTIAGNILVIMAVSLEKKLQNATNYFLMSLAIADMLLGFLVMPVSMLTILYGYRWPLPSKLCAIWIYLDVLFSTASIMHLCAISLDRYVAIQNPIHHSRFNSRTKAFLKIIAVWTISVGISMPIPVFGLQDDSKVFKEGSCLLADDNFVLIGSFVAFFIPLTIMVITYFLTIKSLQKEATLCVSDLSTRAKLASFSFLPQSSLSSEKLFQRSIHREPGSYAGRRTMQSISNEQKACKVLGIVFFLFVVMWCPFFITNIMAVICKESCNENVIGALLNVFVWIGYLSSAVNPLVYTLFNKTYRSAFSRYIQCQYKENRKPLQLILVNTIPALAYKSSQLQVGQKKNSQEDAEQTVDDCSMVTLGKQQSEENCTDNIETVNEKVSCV

Ki (5-HT2A receptor [1]) [µM] | Ki (5-HT1A receptor [2]) [µM] | Ki (D2 receptor [3]) [µM] | Ki (H3 receptor) [µM] | Ki (5-HT6 receptor [4]) [µM] | Compound | other results
0.259 ± 0.014 | 0.155 ± 0.0152 | 0.1 ± 0.007 | 0.0929 ± 0.0036 | 0.383 ± 0.0346 | Fc1cc(CN2CCCC2)ccc1OCCCN1CCN(c2cccc3sccc23)CC1 [Compound 3c] | 
0.262 ± 0.0175 | 0.144 ± 0.0104 | 0.0987 ± 0.0068 | 0.0544 ± 0.002 | 0.354 ± 0.0658 | Fc1cc(OCCCN2CCN(c3cccc4sccc34)CC2)ccc1CN1CCCC1 [Compound 3d] | 
0.268 ± 0.0202 | 0.185 ± 0.0163 | 0.12 ± 0.015 | 0.0753 ± 0.0085 | 0.376 ± 0.0583 | Clc1cc(OCCCN2CCN(c3cccc4sccc34)CC2)ccc1CN1CCCC1 [Compound 3f] | 
0.129 ± 0.0151 | 0.149 ± 0.0117 | 0.0995 ± 0.0084 | 0.0625 ± 0.005 | 0.462 ± 0.0557 | COc1cc(CN2CCCC2)ccc1OCCCN1CCN(c2cccc3sccc23)CC1 [Compound 3g] | 
0.186 ± 0.0201 | 0.135 ± 0.0105 | 0.0911 ± 0.0045 | 0.053 ± 0.0063 | 0.384 ± 0.0513 | c1cc(N2CCN(CCCOc3ccc(CN4CCCC4)cc3)CC2)c2ccsc2c1 [Compound 3i] | 
0.324 ± 0.0275 | 0.305 ± 0.0282 | 0.138 ± 0.0301 | 0.085 ± 0.0098 | 0.385 ± 0.051 | Cc1cc(CN2CCCCC2)ccc1OCCCN1CCN(c2cccc3sccc23)CC1 [Compound 3j] | 
0.175 ± 0.0253 | 0.285 ± 0.0157 | 0.197 ± 0.0155 | 0.0884 ± 0.0101 | 0.389 ± 0.0632 | Fc1cc(CN2CCCCC2)ccc1OCCCN1CCN(c2cccc3sccc23)CC1 [Compound 3l] | 
0.146 ± 0.0115 | 0.213 ± 0.0243 | 0.11 ± 0.0089 | 0.0815 ± 0.0065 | 0.365 ± 0.0556 | Fc1cc(OCCCN2CCN(c3cccc4sccc34)CC2)ccc1CN1CCCCC1 [Compound 3m] | 
0.198 ± 0.0169 | 0.229 ± 0.0258 | 0.144 ± 0.015 |  | 0.416 ± 0.0813 | COc1cc(CN2CCCCC2)ccc1OCCCN1CCN(c2cccc3sccc23)CC1 [Compound 3p] | 
 | 0.0167 ± 0.0018 | 0.0175 ± 0.0019 | 0.0121 ± 0.0015 | 0.336 ± 0.0653 | c1cc(N2CCN(CCCOc3ccc(CN4CCOCC4)cc3)CC2)c2ccsc2c1 [Compound 3w] | Ki (5-HT2C receptor): 0.572 ± 0.0915 µM; weight gain (mice [5]): negligible weight gain; IC50 (5-HT1A receptor [6]): 0.218 µM; IC50 (5-HT2A receptor [7]): 0.142 µM; novelty discrimination index (NDI) (rats [8]; 0.3 and 1.0 mg kg^−1): obvious increase; effect on total exploration time during the acquisition trial (rats [8]; 1.0–10.0 mg kg^−1): no obvious effect; difference in exploration times for novel and familiar objects, retention trial (rats [8]; low dose 0.1 mg kg^−1): no significant difference; Ki (α1 receptor): 0.406 ± 0.0608 µM; IC50 (D2 receptor [9]): 0.0116 µM; CAT: catalepsy ED50 (mice [10]): 27.5 mg/kg; Ki (H1 receptor): 0.82 ± 0.0487 µM; IC50 (5-HT6 receptor [11]): 0.413 µM; APO: apomorphine-induced climbing ED50 (mice [12]): 0.28 mg/kg; IC50 (hH3R): 0.232 µM; MK-801: MK-801-induced hyperactivity ED50 (mice [13]): 0.17 mg/kg
 |  |  |  |  | O=C(CCCN1CCC(O)(c2ccc(Cl)cc2)CC1)c1ccc(F)cc1 [Haloperidol, haloperidol] | LD50 (mice [14]): 21.0 mg/kg; CAT: catalepsy ED50 (mice [10]): 0.51 mg/kg; APO: apomorphine-induced climbing ED50 (mice [12]): 0.09 mg/kg; MK-801: MK-801-induced hyperactivity ED50 (mice [13]): 0.11 mg/kg
 |  |  |  |  | Cc1nc2n(c(=O)c1CCN1CCC(c3noc4cc(F)ccc34)CC1)CCCC2 [Risperidone, risperidone] | LD50 (mice [14]): 82.0 mg/kg; weight gain (mice [5]): significant weight gain; CAT: catalepsy ED50 (mice [10]): 0.51 mg/kg; CAT: catalepsy ED50 (mice [10]; listed as risperidone): 1.15 mg/kg; CAR: conditioned avoidance response ED50 (rats [15]): 0.65 mg/kg; CAR: conditioned avoidance response ED50 (rats [15]; listed as risperidone): 2.1 mg/kg; APO: apomorphine-induced climbing ED50 (mice [12]): 0.05 mg/kg; serum prolactin levels (mice [16]): significant increase; MK-801: MK-801-induced hyperactivity ED50 (mice [13]): 0.02 mg/kg
 |  |  |  |  | CCN(C)C(=O)Oc1cccc([C@H](C)N(C)C)c1 [rivastigmine, reference compound] | novelty discrimination index (NDI) (rats [8]; 0.1 and 0.3 mg kg^−1): obvious increase; exploration time for novel things vs vehicle, retention trial (rats [8]; 0.1 to 3.0 mg kg^−1): longer exploration
